Results reported in paper PMC12865133, “Macrocyclic Molecular Glues for the 14‐3‐3/ChREBP Interaction: Affinity and Cooperativity in an Inverse Relationship” (Angewandte Chemie (International Ed. in English), 2025).

Assays:
[1] = test system: 14-3-3β/macrocycle complex; assay: FA selectivity assay, acetylated 14-3-3 client peptides titrated to 14-3-3β/macrocycle complex; assay type: binding, human; conditions: acetylated client peptide titrated from 100 μM to 14-3-3β (at EC50) and FITC-labeled macrocycle (10 nM), n = 3
14-3-3/ChREBP complex = target: T1, 14-3-3/ChREBP complex (Homo sapiens, UniProt P31946+Q9NP71); assay: 2D FA titrations fitted to thermodynamic cooperativity model; conditions: for α1 / α / Kd: 2D FA model fit; for α1: dimeric 14-3-3 model; for Kd: KDI; for cooperativity (α) factor: 2D FA, 14-3-3β titrated to FITC-labeled MG with varying ChREBP peptide, KD^II fixed 1.5 µM, mean of n = 2
T1 sequence (P31946 1-246): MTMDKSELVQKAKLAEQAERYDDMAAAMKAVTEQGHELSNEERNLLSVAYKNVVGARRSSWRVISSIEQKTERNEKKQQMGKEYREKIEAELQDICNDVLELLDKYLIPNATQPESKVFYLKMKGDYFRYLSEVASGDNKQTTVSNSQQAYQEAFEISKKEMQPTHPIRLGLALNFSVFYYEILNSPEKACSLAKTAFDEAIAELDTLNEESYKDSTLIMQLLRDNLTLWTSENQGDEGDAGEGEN
T1 sequence (Q9NP71 117-142 partner limits assumed): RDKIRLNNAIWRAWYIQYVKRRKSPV

14-3-3γ [2] = target: T2, 14-3-3γ (Homo sapiens, UniProt P61981); assay: Isothermal titration calorimetry, peptide titrated to 14-3-3γ; assay type: binding; conditions: ITC, 200 μM peptide titrated to 20 μM 14-3-3γ, mean ± SD, n=3; for ΔS: 25 mM HEPES pH 8.0, 100 mM NaCl, 10 mM MgCl2, 500 µM TCEP, 25 °C; for ΔG / ΔH: pH 8.0, 25 °C
T2 sequence (P61981 1-247): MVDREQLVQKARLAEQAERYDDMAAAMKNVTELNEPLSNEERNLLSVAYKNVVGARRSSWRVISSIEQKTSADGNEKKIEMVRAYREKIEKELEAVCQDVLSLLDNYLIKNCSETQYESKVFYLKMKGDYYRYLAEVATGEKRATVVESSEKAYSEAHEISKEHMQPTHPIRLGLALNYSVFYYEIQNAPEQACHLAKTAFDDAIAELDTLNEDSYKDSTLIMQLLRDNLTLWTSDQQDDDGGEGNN
Experimental: Final dialysis fluid from protein expression was frozen as 2 mL aliquots to serve as ITC buffer (25 mM HEPES pH 8.0, 100 mM NaCl, 10 mM MgCl2, 500 µM TCEP). 14-3-3γ and peptide were dissolved and diluted in this buffer to 20 μM and 200 μM, respectively. Samples were degassed for 10 min prior to measurement at 450 mmHg. The reference cell was filled with 300 µL degassed MilliQ and the sample cell was filled with 300 µL of peptide or protein mixture. Syringe was loaded with at least 200 µL protein or peptide sample. Measurements were performed on an Affinity ITC LV (TA instruments), with injection size set to 2 µL, stirring speed of 125 rpm and temperature at 25 ̊C. The baseline was automatically adjusted with NITPIC, analysis of data was done in SEDPHAT, and images were produced with GUSSI software. Data and errors represent mean ± SD, n=3 replicates.

14-3-3γ [3] = target: T2, 14-3-3γ; assay: Surface plasmon resonance, Twinstrep-tagged 14-3-3γ captured on StrepTactinXT chip; conditions: for KD, affinity fit: SPR steady-state 1:1 fit; for kon: pH 7.4, read-out: ka, kinetic fit
Experimental: The SPR experiments were performed at 25 °C using a Biacore X100 (Cytiva) and a 200 nm Strep-Tactin XT derivatized linear polycarboxylate hydrogel chip, medium charge density (XanTec Bioanalytics). All proteins and peptides were dissolved in fresh running buffer prepared with ultrapure water and filtered through a 0.2 μm filter (10 mM HEPES pH 7.4, 200 mM NaCl, 50 μM EDTA, 0.005% P20). First the surface was conditioned with a 1 min injection of 3 M Guanidine HCl. The Biacore X100 was primed with running buffer. […] Flow cell 1 was left blank as a reference surface. […] Between cycles of one multi-cycle measurement, no regeneration step was performed due to the complete dissociation of the analyte. […] The data collection rate of the instrument is 1 datapoint/sec. […] All parameters were fitted using global fitting, including the Rmax, because a single immobilization was used for all analyte concentrations. The RI was set constant at 0 RU. Next to kinetic fitting, the affinity fit was made using a 1:1 binding model by plotting the response (RU) at steady state over the analyte concentration (Fig. S2).

14-3-3β = target: T3, 14-3-3β (Homo sapiens, UniProt P31946); assay: FA titration of 14-3-3β to FITC-labeled macrocycle (EC50 used for selectivity assay); assay type: binding; conditions: 14-3-3β concentration equal to/around EC50 for FITC-labeled macrocycle (10 nM)
T3 construct: The full-length human 14-3-3β and γ proteins; made in house; host or cells: Escherichia coli BL21(DE3)
T3 sequence (P31946 1-246): T1 sequence (P31946 1-246)
Experimental: For the 2D titrations, 14-3-3β was titrated in a 2-fold dilution series (starting at 250 µM) to a mix of fluorescein-labeled macrocycle (5 nM) against varying fixed concentrations of ChREBP (2-fold dilution starting from 20 µM (replicate 1) or 10 µM (replicate 2)).
Dilution series were made in a polystyrene (non-binding) low-volume Corning Black Round Bottom 384-well plates (Corning 4514 or 4511). […] Wells containing 5 nm FITC-macrocycle were used to set as G-factor. All data were analyzed using Origin2023b and fitted using a four-parameter logistic model. Each measurement was performed in three independent experiments.

14-3-3γ [4] = target: T2, 14-3-3γ; assay: Fluorescence Anisotropy protein titration of 14-3-3γ to FITC-labeled macrocycles; assay type: binding; conditions: FA, 14-3-3γ titrated (2-fold from 250 µM) to FITC-labeled peptide (10 nM in Fig. 2a, 5 nM in method), 10 mM HEPES pH 7.4, 150 mM NaCl, 0.1% Tween20, 0.1% BSA, rt, mean ± SD, n = 3
Experimental: Wells containing 5 nm FITC-macrocycle were used to set as G-factor. All data were analyzed using Origin2023b and fitted using a four-parameter logistic model. Each measurement was performed in three independent experiments.

[5] = replicate 1 (ChREBP from 20 μM)
[6] = replicate 2 (ChREBP from 10 μM)
[7] = SPR, 1:1 model, 25 °C, 10 mM HEPES pH 7.4, 200 mM NaCl, replicate 1
[8] = SPR, 1:1 model, 25 °C, pH 7.4, average ± SD, n=2, SD
[9] = SPR, 1:1 model, 25 °C, pH 7.4, replicate 1
[10] = SPR, 1:1 model, 25 °C, pH 7.4, replicate 2

Q: “Ac-RDKIRLNNAIWRAWYIQYVKRRKSPV-NH2 [ChREBP, acetylated ChREBP peptide purchased from GenScript, 14-3-3 client peptide]” was tested. Which “effect of client peptide on 14-3-3β/macrocycle complex” value [1] did it give?
A: Stabilization

Q: `NCCCC[C@@H](C(N)=O)N1CCCCc2cn(nn2)-c2ccc(cc2)C[C@H](NC(=O)[C@@H](N)COP(=O)(O)O)C(=O)N[C@@H](CO)CC(=O)NCCC(=O)N[C@@H](Cc2ccc([N+](=O)[O-])cc2)C1=O` [Macrocycle 4] was tested. Which α1 (14-3-3/ChREBP complex; replicate 1) did it give?
A: 11.8

Q: And the α1 (14-3-3/ChREBP complex; replicate 2)?
A: 13.5

Q: What about the α (14-3-3/ChREBP complex; [5]) of the same molecule?
A: 42.5

Q: And the α (14-3-3/ChREBP complex; [6])?
A: 41.3

Q: What about the Kd (14-3-3/ChREBP complex; [5]) of the same molecule?
A: 5 µM

Q: What about the Kd (14-3-3/ChREBP complex; [6]) of the same molecule?
A: 5 µM

Q: What about the ΔS (14-3-3γ [2]) of the same molecule?
A: 2.9 ± 0.78 cal/(mol·K)

Q: And the ΔG (14-3-3γ [2])?
A: -8.15 ± 0.10 kcal/mol

Q: What about the ΔH (14-3-3γ [2]) of the same molecule?
A: -7.4 ± 0.44 kcal/mol

Q: What about the “KD, affinity fit” value (14-3-3γ [3]; 25 °C, pH 7.4, replicate 1) of the same molecule?
A: 1.18 µM

Q: And the “KD, affinity fit” value (14-3-3γ [3]; 25 °C, pH 7.4, replicate 2)?
A: 1.13 µM

Q: What about the “ka, kinetic fit” value (14-3-3γ [3]; [7]) of the same molecule?
A: 282000 M⁻¹ s⁻¹

Q: And the “kd, kinetic fit” value (14-3-3γ [3]; [8])?
A: 0.31 ± 0.01 s⁻¹

Q: And the “KD, kinetic fit” value (14-3-3γ [3]; [9])?
A: 1.14 µM

Q: What about the “kd, kinetic fit” value (14-3-3γ [3]; [9]) of the same molecule?
A: 0.3198 s⁻¹

Q: And the “KD, kinetic fit” value (14-3-3γ [3]; [10])?
A: 1.03 µM

Q: What about the “ka, kinetic fit” value (14-3-3γ [3]; [10]) of the same molecule?
A: 290000 M⁻¹ s⁻¹

Q: What about the “kd, kinetic fit” value (14-3-3γ [3]; [10]) of the same molecule?
A: 0.2988 s⁻¹

Q: And the “association rate (k on) fold increase compared to pepD” value (14-3-3γ [3]; SPR, 14-3-3γ)?
A: 3.5 fold

Q: And the kon (14-3-3γ [3]; SD)?
A: 290000 M⁻¹ s⁻¹

Q: How did the “cooperativity (α) factor” value (14-3-3/ChREBP complex) turn out when `NCCCC[C@@H](C(=O)NCCC(=O)N[C@@H](CCCCNC(=S)Nc1ccc2c(c1)C(=O)OC21c2ccc(O)cc2Oc2cc(O)ccc21)C(N)=O)N1CCCCc2cn(nn2)-c2ccc(cc2)C[C@H](NC(=O)[C@@H](N)COP(=O)(O)O)C(=O)N[C@@H](CO)CC(=O)NCCC(=O)N[C@@H](Cc2ccc([N+](=O)[O-])cc2)C1=O` [Macrocycle F4] was run?
A: 42 ± 1

Q: And the EC50 (14-3-3β)?
A: 2 µM

Q: What does the source list for `NCCCC[C@@H](C(=O)NCCC(=O)N[C@@H](CCCCNC(=S)Nc1ccc2c(c1)C(=O)OC21c2ccc(O)cc2Oc2cc(O)ccc21)C(N)=O)N1CCc2cn(nn2)-c2ccc(cc2)C[C@H](NC(=O)[C@@H](N)COP(=O)(O)O)C(=O)N[C@@H](CO)CC(=O)NCCC(=O)N[C@@H](Cc2ccc([N+](=O)[O-])cc2)C1=O` [Macrocycle 2]?
A: α1 (14-3-3/ChREBP complex; replicate 1): 18.8; α1 (14-3-3/ChREBP complex; replicate 2): 8.3; α (14-3-3/ChREBP complex; [5]): 46; α (14-3-3/ChREBP complex; [6]): 61

Q: `NCCCC[C@@H](C(=O)NCCC(=O)N[C@@H](CCCCNC(=S)Nc1ccc2c(c1)C(=O)OC21c2ccc(O)cc2Oc2cc(O)ccc21)C(N)=O)N1CCCc2cn(nn2)-c2ccc(cc2)C[C@H](NC(=O)[C@@H](N)COP(=O)(O)O)C(=O)N[C@@H](CO)CC(=O)NCCC(=O)N[C@@H](Cc2ccc([N+](=O)[O-])cc2)C1=O` [Macrocycle F3] was tested. Which “cooperativity (α) factor” value (14-3-3/ChREBP complex) did it give?
A: 12 ± 1

Q: And the Kd (14-3-3γ [4])?
A: 0.23 ± 0.06 µM

Q: For `NCCCC[C@@H](C(N)=O)N1CCCc2cn(nn2)-c2ccc(cc2)C[C@H](NC(=O)[C@@H](N)COP(=O)(O)O)C(=O)N[C@@H](CO)CC(=O)NCCC(=O)N[C@@H](Cc2ccc([N+](=O)[O-])cc2)C1=O` [Macrocycle 3], which α1 (14-3-3/ChREBP complex; replicate 1) is on record?
A: 11.7

Q: What about the α1 (14-3-3/ChREBP complex; replicate 2) of the same molecule?
A: 11

Q: What about the α (14-3-3/ChREBP complex; [5]) of the same molecule?
A: 12.3

Q: What about the α (14-3-3/ChREBP complex; [6]) of the same molecule?
A: 11

Q: And the ΔS (14-3-3γ [2])?
A: 5.9 ± 0.89 cal/(mol·K)

Q: What about the ΔG (14-3-3γ [2]) of the same molecule?
A: -9.24 ± 0.028 kcal/mol

Q: What about the ΔH (14-3-3γ [2]) of the same molecule?
A: -7.5 ± 0.70 kcal/mol

Q: And the Kd (14-3-3γ [3]; KD, kinetic fit, SPR, 1:1 model, 25 °C, pH 7.4, average ± SD, n=2, SD)?
A: 0.23 µM

Q: And the “KD, affinity fit” value (14-3-3γ [3]; 25 °C, pH 7.4, replicate 1)?
A: 0.228 µM

Q: And the “KD, affinity fit” value (14-3-3γ [3]; 25 °C, pH 7.4, replicate 2)?
A: 0.253 µM

Q: And the “ka, kinetic fit” value (14-3-3γ [3]; [7])?
A: 629000 M⁻¹ s⁻¹

Q: What about the “kd, kinetic fit” value (14-3-3γ [3]; [8]) of the same molecule?
A: 0.13 ± 0.01 s⁻¹

Q: And the “KD, kinetic fit” value (14-3-3γ [3]; [9])?
A: 0.22 µM

Q: And the “kd, kinetic fit” value (14-3-3γ [3]; [9])?
A: 0.1384 s⁻¹

Q: What about the “KD, kinetic fit” value (14-3-3γ [3]; [10]) of the same molecule?
A: 0.233 µM

Q: What about the “ka, kinetic fit” value (14-3-3γ [3]; [10]) of the same molecule?
A: 556000 M⁻¹ s⁻¹

Q: What about the “kd, kinetic fit” value (14-3-3γ [3]; [10]) of the same molecule?
A: 0.1296 s⁻¹

Q: And the kon (14-3-3γ [3]; SD)?
A: 590000 M⁻¹ s⁻¹

Q: How did the EC50 (14-3-3β) turn out when `NCCCC[C@@H](C(=O)NCCC(=O)N[C@@H](CCCCNC(=S)Nc1ccc2c(c1)C(=O)OC21c2ccc(O)cc2Oc2cc(O)ccc21)C(N)=O)N1CCc2cn(nn2)-c2ccc(cc2)C[C@H](NC(=O)[C@@H](N)COP(=O)(O)O)C(=O)N[C@@H](CO)CC(=O)NCCC(=O)N[C@@H](Cc2ccc([N+](=O)[O-])cc2)C1=O` [Macrocycle F2] was run?
A: 7 µM

Q: How did the α1 (14-3-3/ChREBP complex; replicate 1) turn out when `NCCCC[C@@H](C(=O)NCCC(=O)N[C@@H](CCCCNC(=S)Nc1ccc2c(c1)C(=O)OC21c2ccc(O)cc2Oc2cc(O)ccc21)C(N)=O)N1Cc2cn(nn2)-c2ccc(cc2)C[C@H](NC(=O)[C@@H](N)COP(=O)(O)O)C(=O)N[C@@H](CO)CC(=O)NCCC(=O)N[C@@H](Cc2ccc([N+](=O)[O-])cc2)C1=O` [Macrocycle F1] was run?
A: 82.8

Q: And the α1 (14-3-3/ChREBP complex; replicate 2)?
A: 85.4

Q: What about the α (14-3-3/ChREBP complex; [5]) of the same molecule?
A: 314

Q: And the α (14-3-3/ChREBP complex; [6])?
A: 363

Q: What about the “cooperativity (α) factor” value (14-3-3/ChREBP complex) of the same molecule?
A: 339 ± 35
